Data set [1] in a line: Chemical stability assessed as half life at 70 degC. It is filed as physicochemical.
The nature of data set [2]: Chemical stability assessed as half life at 60 degC. It is filed as physicochemical.
Data set [3] concerns Escherichia coli. Briefly: Induction of Escherichia coli pBR322 DNA cleavage assessed as generation of form 3 at 20 uM at pH 8.0 after 24 hrs.
Data set [4] deals with Escherichia coli. Nature of the data set: Induction of Escherichia coli pBR322 DNA cleavage assessed as generation of form 3 at 20 uM at pH 8.0 after 12 hrs.
Data set [5] has as its system Escherichia coli. Briefly: Induction of Escherichia coli pBR322 DNA cleavage at 0.4 uM at pH 8.0 after 24 hrs.
Data set [6] concerns Escherichia coli. Briefly: Induction of Escherichia coli pBR322 DNA cleavage at 0.4 uM at pH 7.5 after 24 hrs.
In data set [7] the test system is Escherichia coli. Nature of the data set: Induction of Escherichia coli pBR322 DNA cleavage at 0.4 uM at pH 8.5 after 24 hrs.
Data set [8] is described as follows: Chemical stability assessed as half life at 50 degC. Type of data set: physicochemical.
Data set [9] in a line: Chemical stability assessed as half life at 30 degC. Type of data set: physicochemical.
Data set [10] relates to Escherichia coli. Briefly: Induction of Escherichia coli pBluescript SK+ DNA cleavage assessed as generation of form 3 at 20 uM at pH 8.0 after 48 hrs.
Data set [11] concerns Escherichia coli. Briefly: Induction of Escherichia coli pBluescript SK+ DNA cleavage assessed as generation of form 3 at 20 uM at pH 8.0 after 12 hrs.
Data set [12] has as its system Escherichia coli. Briefly: Induction of Escherichia coli pBR322 DNA cleavage assessed as generation of form 3 at 20 uM at pH 8.0 after 48 hrs.

Activity calls are given as the source filed them. No cut-off for these calls is given here.

Turning to `O=[N+]([O-])c1ccc(S(=O)(=O)N2CC#Cc3ccc([N+](=O)[O-])cc3C#CCC2)cc1`, the results for the half-life in [1] and in data set [2] were 12 h and 138 h, respectively.
Take `Cc1ccc(S(=O)(=O)N2CC#Cc3ccccc3C#CCC2)cc1`: in data set [1], the half-life (as a rule, the time in which the quantity being followed falls by half) was 48 h.
As to `C1#Cc2ccccc2C#CCNCC1.Cc1ccc(S(=O)(=O)O)cc1`, the result in the data set on Escherichia coli [3], in the data set on Escherichia coli [4], with Escherichia coli [5], in the data set on Escherichia coli [6] and in the data set with Escherichia coli [7] was Active. Also, the half-life was 130 h in [8] and 770 h in data set [9]. Also, the result with Escherichia coli [10] and with Escherichia coli [11] was inactive.
In the case of `O=[N+]([O-])c1ccc(S(=O)(=O)N2CC#Cc3cc([N+](=O)[O-])c([N+](=O)[O-])cc3C#CCC2)cc1`, in [1], the half-life is 9.5 h.
`O=[N+]([O-])c1ccc2c(c1)C#CCCNCC#C2`: the result with Escherichia coli [3] and in the data set with Escherichia coli [12] was Active.

The values above are taken from ChEMBL document CHEMBL1149864, “Benzofused N-substituted cyclic enediynes: activation and DNA-cleavage potential” (Bioorg Med Chem, 2008).
